# According to publication doi:10.1101/2024.08.19.608619, “Discovery of potent SARS-CoV-2 nsp3 macrodomain inhibitors uncovers lack of translation to cellular antiviral response” (bioRxiv, 2024):
# Tested on: not listed separately
# Experiment: in vitro
# Details: human, hela-ace2 cells, 50.0
row,SMILES,CC50 at 24 h [µM]
1,CC(C)[C@@H](Nc1ncnc2[nH]c(-c3cnn(CC(N)=O)c3)cc12)c1ccc2c(c1)S(=O)(=O)CCC2 [ASAP-0011432],> 20
2,CC(C)[C@@H](Nc1ncnc2[nH]ccc12)c1ccc2c(c1)S(=O)(=O)CCO2 [ASAP-0012318],> 20

# Tested on: HeLa-ACE2 cells
# Experiment: not given
# Details: HeLa-ACE2 cytotoxicity
SMILES,CC50 [µM],cc10 [µM]
CC(C)[C@@H](Nc1ncnc2[nH]ccc12)c1ccc2c(c1)S(=O)(=O)CCO2 [ASAP-0012318],> 20,> 20.0

# Same assay, conditions: HeLa-ACE2 cytotoxicity; highest measured response of the dose series
row,SMILES,perc_max_measured [%]
1,CC(C)[C@@H](Nc1ncnc2[nH]ccc12)c1ccc2c(c1)S(=O)(=O)CCO2 [ASAP-0012318],106.826

# Same assay, conditions: HeLa-ACE2 cytotoxicity; lowest measured response of the dose series
row,SMILES,perc_min_measured [%]
1,CC(C)[C@@H](Nc1ncnc2[nH]ccc12)c1ccc2c(c1)S(=O)(=O)CCO2 [ASAP-0012318],90.526

# Same assay, conditions: protocol HeLa-ACE2 cytotoxicity
SMILES,CC50 [µM],cc10 [µM]
CC(C)[C@@H](Nc1ncnc2[nH]c(-c3cnn(CC(N)=O)c3)cc12)c1ccc2c(c1)S(=O)(=O)CCC2 [ASAP-0011432],> 20,> 20.0

# Same assay, conditions: protocol HeLa-ACE2 cytotoxicity; highest measured response of the dose series
row,SMILES,perc_max_measured [%]
1,CC(C)[C@@H](Nc1ncnc2[nH]c(-c3cnn(CC(N)=O)c3)cc12)c1ccc2c(c1)S(=O)(=O)CCC2 [ASAP-0011432],97.628

# Same assay, conditions: protocol HeLa-ACE2 cytotoxicity; lowest measured response of the dose series
row,SMILES,perc_min_measured [%]
1,CC(C)[C@@H](Nc1ncnc2[nH]c(-c3cnn(CC(N)=O)c3)cc12)c1ccc2c(c1)S(=O)(=O)CCC2 [ASAP-0011432],83.24

# Tested on: not listed separately
# Experiment: Permeability Papp (AB) MDR1/MDCKII
# Details: In vitro MDR1-MDCKII permeability, A to B, mean
row,SMILES,papp_a_to_b_mean [×10⁻⁶ cm/s]
1,CC(C)[C@@H](Nc1ncnc2[nH]c(-c3cnn(CC(N)=O)c3)cc12)c1ccc2c(c1)S(=O)(=O)CCC2 [ASAP-0011432],0.719

# Same assay, conditions: In vitro MDR1-MDCKII permeability, A to B, no inhibitor
row,SMILES,papp_a_to_b_mean [×10⁻⁶ cm/s]
1,CC(C)[C@@H](Nc1ncnc2[nH]ccc12)c1ccc2c(c1)S(=O)(=O)CCO2 [ASAP-0012318],4.4

# Same assay, conditions: In vitro MDR1-MDCKII permeability, recovery A to B, mean
row,SMILES,perc_recovery_a_to_b_mean [%]
1,CC(C)[C@@H](Nc1ncnc2[nH]c(-c3cnn(CC(N)=O)c3)cc12)c1ccc2c(c1)S(=O)(=O)CCC2 [ASAP-0011432],76.6

# Same assay, conditions: In vitro MDR1-MDCKII permeability, recovery A to B, no inhibitor
row,SMILES,perc_recovery_a_to_b_mean [%]
1,CC(C)[C@@H](Nc1ncnc2[nH]ccc12)c1ccc2c(c1)S(=O)(=O)CCO2 [ASAP-0012318],69.0

# Tested on: not listed separately
# Experiment: LogD
# Details: pH 7.4; In vitro LogD
row,SMILES,logd
1,CC(C)[C@@H](Nc1ncnc2[nH]c(-c3cnn(CC(N)=O)c3)cc12)c1ccc2c(c1)S(=O)(=O)CCC2 [ASAP-0011432],2.0
2,CC(C)[C@@H](Nc1ncnc2[nH]ccc12)c1ccc2c(c1)S(=O)(=O)CCO2 [ASAP-0012318],2.6

# Tested on: not listed separately
# Experiment: In vitro kinetic solubility
# Details: In vitro kinetic solubility, ph 7.4
row,SMILES,solubility_mean [µM]
1,CC(C)[C@@H](Nc1ncnc2[nH]c(-c3cnn(CC(N)=O)c3)cc12)c1ccc2c(c1)S(=O)(=O)CCC2 [ASAP-0011432],335
2,CC(C)[C@@H](Nc1ncnc2[nH]ccc12)c1ccc2c(c1)S(=O)(=O)CCO2 [ASAP-0012318],372

# Tested on: not listed separately
# Experiment: Hepatic microsomal stability, MLM
# Type: in vitro ADME
# Details: In vitro mouse liver microsomal stability
SMILES,clint [µL/min/mg],perc_remaining [%],t_half [min]
CC(C)[C@@H](Nc1ncnc2[nH]c(-c3cnn(CC(N)=O)c3)cc12)c1ccc2c(c1)S(=O)(=O)CCC2 [ASAP-0011432],96.0,20.0,17.4
CC(C)[C@@H](Nc1ncnc2[nH]ccc12)c1ccc2c(c1)S(=O)(=O)CCO2 [ASAP-0012318],69.0,33.0,24.2

# Same assay, conditions: In vitro mouse liver microsomal stability, no cofactor
row,SMILES,perc_remaining_no_cofactor [%]
1,CC(C)[C@@H](Nc1ncnc2[nH]c(-c3cnn(CC(N)=O)c3)cc12)c1ccc2c(c1)S(=O)(=O)CCC2 [ASAP-0011432],111.0
2,CC(C)[C@@H](Nc1ncnc2[nH]ccc12)c1ccc2c(c1)S(=O)(=O)CCO2 [ASAP-0012318],111.0

# Tested on: not listed separately
# Experiment: Hepatic microsomal stability, HLM
# Type: in vitro ADME, human
# Details: In vitro human liver microsomal stability
SMILES,clint [µL/min/mg],perc_remaining [%],t_half [min]
CC(C)[C@@H](Nc1ncnc2[nH]c(-c3cnn(CC(N)=O)c3)cc12)c1ccc2c(c1)S(=O)(=O)CCC2 [ASAP-0011432],115.0,15.0,14.5
CC(C)[C@@H](Nc1ncnc2[nH]ccc12)c1ccc2c(c1)S(=O)(=O)CCO2 [ASAP-0012318],18.0,74.0,91.3

# Same assay, conditions: In vitro human liver microsomal stability; no cofactor
row,SMILES,perc_remaining_no_cofactor [%]
1,CC(C)[C@@H](Nc1ncnc2[nH]c(-c3cnn(CC(N)=O)c3)cc12)c1ccc2c(c1)S(=O)(=O)CCC2 [ASAP-0011432],103.0
2,CC(C)[C@@H](Nc1ncnc2[nH]ccc12)c1ccc2c(c1)S(=O)(=O)CCO2 [ASAP-0012318],92.0

# Tested on: SARS-CoV-2, isolate USA-WA1/2020
# Experiment: microbe, parasite or virus in culture
# Type: cell-based
# Details: HeLa-ACE2 SARS-CoV-2 antiviral effect without P-gp inhibitor; maximum measured response of dose series
row,SMILES,perc_max_measured [%]
1,CC(C)[C@@H](Nc1ncnc2[nH]c(-c3cnn(CC(N)=O)c3)cc12)c1ccc2c(c1)S(=O)(=O)CCC2 [ASAP-0011432],127.59
2,CC(C)[C@@H](Nc1ncnc2[nH]ccc12)c1ccc2c(c1)S(=O)(=O)CCO2 [ASAP-0012318],99.283

# Same assay, conditions: HeLa-ACE2 SARS-CoV-2 antiviral effect without P-gp inhibitor; minimum measured response of dose series
row,SMILES,perc_min_measured [%]
1,CC(C)[C@@H](Nc1ncnc2[nH]c(-c3cnn(CC(N)=O)c3)cc12)c1ccc2c(c1)S(=O)(=O)CCC2 [ASAP-0011432],107.301
2,CC(C)[C@@H](Nc1ncnc2[nH]ccc12)c1ccc2c(c1)S(=O)(=O)CCO2 [ASAP-0012318],83.757

# Same assay, conditions: HeLa-ACE2 SARS-CoV-2 antiviral effect without P-gp inhibitor; read-out: ec50
row,SMILES,EC50 [µM]
1,CC(C)[C@@H](Nc1ncnc2[nH]c(-c3cnn(CC(N)=O)c3)cc12)c1ccc2c(c1)S(=O)(=O)CCC2 [ASAP-0011432],> 20
2,CC(C)[C@@H](Nc1ncnc2[nH]ccc12)c1ccc2c(c1)S(=O)(=O)CCO2 [ASAP-0012318],> 20

# Same assay, conditions: HeLa-ACE2 SARS-CoV-2 antiviral effect without P-gp inhibitor; read-out: ec90
row,SMILES,EC90 [µM]
1,CC(C)[C@@H](Nc1ncnc2[nH]c(-c3cnn(CC(N)=O)c3)cc12)c1ccc2c(c1)S(=O)(=O)CCC2 [ASAP-0011432],> 20
2,CC(C)[C@@H](Nc1ncnc2[nH]ccc12)c1ccc2c(c1)S(=O)(=O)CCO2 [ASAP-0012318],> 20
